According to patent publication US20090246185A1, “CARDIAC DYSFUNCTION-AMELIORATING AGENT OR CARDIAC FUNCTION-MAINTAINING AGENT” (KANEKA CORPORATION, priority 2006, published 2009):
Marks after values point to notes of the source that are not given here.

Key:
[1] = test system: ischemia-reperfusion model; assay: Cardiac function evaluation (left ventricular end-diastolic pressure) in rat ischemia-reperfusion model; type: in vivo; details: for left ventricle end-diastolic pressure: male SD rats, LAD occlusion 30 min then reperfusion, 30 mg/kg per day oral in corn oil, 1 week before and 4 weeks after operation, mean ± standard error; for effect on elevation of the end-diastolic pressure (cardiac function), in words: rat ischemia-reperfusion model, 30 mg/kg per day oral, vs. control group
Method: (§1) Male SD rats (9-week-old, Japan SLC Inc.) were divided into four groups. Each rat was anesthetized with pentobarbital sodium (35-45 mg/kg, i.p.), and fixed at the dorsal position. A tracheal tube was orally inserted into the airway, artificial respiration was performed by an artificial respirator for small animals, and the medial wall of the thorax was opened to expose the heart. In three groups, the left anterior descending artery (LAD) was obstructed for 30 min with a surgical needle with a thread. At this time, an electrocardiogram was measured via an amplifier for electrocardiogram, and the presence or absence of occlusion was confirmed based on the changes in the ST electrical potential and cardiac muscle color. An ischemia-reperfusion model was prepared by reperfusing the blood flow after 30 min from the occlusion. Thereafter, in all groups, the thorax was closed, sutured, and disinfected with a veterinary Isodine solution.
(§2) The following samples were administered to each group for 1 week before the above-mentioned operation and 4 weeks after the operation (total 5 weeks).
(§3) Group for which occlusion treatment was performed, and oxidized coenzyme Q10 dissolved in corn oil was orally administered at a dosage of 30 mg/kg per day based on the amount of oxidized coenzyme Q10
(§4) Group for which occlusion treatment was performed, and […] dissolved in corn oil was orally administered at a dosage of 30 mg/kg per day based on the amount of reduced coenzyme Q10
After measuring the body weight on the next day of the final administration, the rats were fixed at the dorsal position under pentobarbital sodium (25-35 mg/kg, i.p.) anesthesia, and a mirror catheter was inserted into the right carotid artery. After confirmation of the stable condition, the left ventricle internal pressure wave pattern was led to a biological electric amplifier to enlarge same, and the left ventricular end-diastolic pressure (LVEDP) was measured.

rats = details: 1200 mg/kg/day consecutive administration for 52 weeks; cited from earlier work
[2] = test system: ischemia-reperfusion model; assay: Heart weight (body weight ratio) in rat ischemia-reperfusion model; type: in vivo; details: for body weight ratio of heart weight: left atrium / body weight ratio of heart weight: left ventricle / body weight ratio of heart weight: right atrium / body weight ratio of heart weight: right ventricle: male SD rats, ischemia-reperfusion, 30 mg/kg per day oral in corn oil, 5 weeks, average; for effect on increase in heart weight (edema), in words: rat ischemia-reperfusion model, 30 mg/kg per day oral, vs. control group
Method: as §1, §2, §3, §4
After cardiac function evaluation, the animals were euthanized by dislocation of cervical spine under anesthesia, and the heart was removed. The right atrium weight, left atrium weight, right ventricle weight, left ventricle weight and overall weight of the heart (weight of both atria+weight of both ventricles) were measured. For evaluation, the body weight ratio of the right atrium weight, the body weight ratio of the left atrium weight, the body weight ratio of the right ventricle weight and the body weight ratio of the left ventricle weight were calculated.

[3] = Absorbability evaluation: total coenzyme Q10 in plasma and heart by HPLC; details: male SD rats, 100 mg/kg oral in soybean oil once a day for 4 weeks; average, N=3
Method: Male SD rats (5-week-old, Japan SLC Inc.) were each orally administered with soybean oil (control group), oxidized coenzyme Q10 (100 mg/kg) dissolved in soybean oil (oxidized coenzyme Q10 group) and reduced coenzyme Q10 (containing 1 wt % of oxidized coenzyme Q10; 100 mg/kg) dissolved in soybean oil (reduced coenzyme Q10 group) once a day for 4 consecutive weeks (each group N=3). After completion of the administration, blood samples were taken and the heart was removed, and the total amount of coenzyme Q10 (total amount of oxidized coenzyme Q10 and reduced coenzyme Q10) in plasma and heart was quantified by HPLC according to a conventional method.

Compound | left ventricle end-diastolic pressure [1] [mmHg] | effect on elevation of the end-diastolic pressure (cardiac function), in words [1] | toxic influence in chronic toxicity test (rats) | body weight ratio of heart weight: left atrium [2] | body weight ratio of heart weight: left ventricle [2] | body weight ratio of heart weight: right atrium [2] | body weight ratio of heart weight: right ventricle [2] | effect on increase in heart weight (edema), in words [2] | total coenzyme Q10 concentration in heart [3] [µg/mL] | total coenzyme Q10 concentration in plasma [3]
COC1=C(OC)C(=O)C(C/C=C(\C)CC/C=C(\C)CC/C=C(\C)CC/C=C(\C)CC/C=C(\C)CC/C=C(\C)CC/C=C(\C)CC/C=C(\C)CC/C=C(\C)CCC=C(C)C)=C(C)C1=O [oxidized coenzyme Q10, reference compound] | 8.3 ± 0.7 | did not provide an ameliorating effect | did not show a toxic influence | 0.081 | 1.823 | 0.135 | 0.498 | suppressed increase in the heart weight in all parts | – | –
COc1c(O)c(C)c(C/C=C(\C)CC/C=C(\C)CC/C=C(\C)CC/C=C(\C)CC/C=C(\C)CC/C=C(\C)CC/C=C(\C)CC/C=C(\C)CC/C=C(\C)CCC=C(C)C)c(O)c1OC [reduced coenzyme Q10] | 5.7 ± 0.4 | significant suppression of elevation of the end-diastolic pressure | – | 0.089 | 1.879 | 0.146 | 0.508 | suppressed increase in the heart weight in all parts | 9.33 | 0.39* μg/ml
